≈ marks a conversion by molar mass, not a printed value. Like-named read-outs stand apart in the source and are kept apart here. Peptide text beside a SMILES is read from it.
Experiments:
MRSA strain 2468 [1] = experiment: Compatibility with surfactants (activity retention by agar well diffusion); assay type: physicochemical, Staphylococcus aureus; settings: 32 µg/mL, agar well diffusion read-out, % of untreated sample, mean ± SD, n = 3
Experimental: (§1) The AMP solution was prepared in sterile purified water and adjusted to a final concentration of 32 µg/mL. To determine thermal stability, the AMP was exposed to temperatures of 30, 40, 60, 80, and 100 °C, as well as to autoclaving at 121 °C and 15 psi for 15 and 30 min. The susceptibility of the AMP to enzymatic degradation was examined by treating it with proteinase K, trypsin, and α-chymotrypsin (each at 1 mg/mL, Sigma-Aldrich, Warren, MI, USA), representing different proteolytic mechanisms. The AMP’s compatibility with surfactants was assessed by incubating it with 1% SDS, 1% CTAB, and 1% Triton X-100 (AppliChem GmbH, Darmstadt, Germany). Additionally, the effect of pH variations on AMP integrity was tested by adjusting the solution to pH 1, 4, 8, 10, and 14. The pH was neutralized to the original pH after incubation before conducting antibacterial activity tests. […] Stability data were expressed as residual activity percentages relative to the untreated sample (mean ± SD), and statistical significance was evaluated using two-way ANOVA and Tukey’s post hoc test, with a p-value < 0.05 considered significant.

[2] = DPPH radical-scavenging assay; settings: 0.1 mM DPPH, 25 °C, 30 min in darkness, absorbance 517 nm; mean ± SD, n = 3
Experimental: A 200 μL sample or ascorbic acid (Gammaco Ltd., Bangkok, Thailand) was added to 2 mL of 0.1 mM DPPH solution (Merck Ltd., Bangkok, Thailand) and incubated at 25 °C in darkness for 30 min. The DPPH color change from purple to pale yellow was observed, and the absorbance at 517 nm was measured using a UV–visible spectrophotometer.

α-chymotrypsin = target: T1, α-chymotrypsin (Bos taurus, UniProt P00766); experiment: Stability to protease digestion (activity retention); assay type: in vitro ADME; settings: 32 µg/mL, α-chymotrypsin 1 mg/mL, agar well diffusion read-out vs MRSA strain 2468, % of untreated sample, mean ± SD, n = 3
T1 construct: purchased Sigma-Aldrich
Experimental: as §1

proteinase K = target: T2, proteinase K (Parengyodontium album, UniProt P06873); experiment: as above; assay type: in vitro ADME; settings: 32 µg/mL, proteinase K 1 mg/mL, agar well diffusion read-out vs MRSA strain 2468, % of untreated sample, mean ± SD, n = 3
T2 construct: purchased Sigma-Aldrich
Experimental: as §1

MRSA strain 2468 [3] = experiment: Thermal stability (activity retention by agar well diffusion); assay type: physicochemical, Staphylococcus aureus; settings: for Antibacterial Activity Retention of FN33 AMP (%) Against MRSA Strain 2468: 32 µg/mL in water, agar well diffusion read-out, % of untreated sample, mean ± SD, n = 3
Experimental: as §1

trypsin = assay type: in vitro ADME; settings: 32 µg/mL, trypsin 1 mg/mL, agar well diffusion read-out vs MRSA strain 2468, % of untreated sample, mean ± SD, n = 3
Experimental: as §1

MRSA strain 2468 [4] = experiment: Stability to pH variation (activity retention by agar well diffusion); assay type: physicochemical, Staphylococcus aureus; settings: 32 µg/mL, neutralized before test, agar well diffusion read-out, % of untreated sample, mean ± SD, n = 3
Experimental: as §1

T2 sequence (P06873 106-384): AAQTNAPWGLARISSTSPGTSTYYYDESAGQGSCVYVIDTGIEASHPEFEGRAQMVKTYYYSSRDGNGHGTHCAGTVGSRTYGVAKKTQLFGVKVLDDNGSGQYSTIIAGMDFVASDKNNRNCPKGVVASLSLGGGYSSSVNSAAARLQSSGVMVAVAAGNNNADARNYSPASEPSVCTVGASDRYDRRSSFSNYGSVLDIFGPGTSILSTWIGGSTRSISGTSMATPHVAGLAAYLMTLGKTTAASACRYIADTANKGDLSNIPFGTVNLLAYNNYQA

## CC(C)C[C@H](NC(=O)[C@H](CC(=O)O)NC(=O)[C@H](CS)NC(=O)[C@H](Cc1c[nH]cn1)NC(=O)[C@H](CS)NC(=O)[C@@H]1CCCN1C(=O)[C@@H](NC(=O)[C@H](CC(C)C)NC(=O)[C@H](CS)NC(=O)CNC(=O)[C@H](Cc1c[nH]c2ccccc12)NC(=O)[C@@H](NC(=O)[C@H](CC(=O)O)NC(=O)[C@@H](NC(=O)CNC(=O)[C@H](CS)NC(=O)CNC(=O)CNC(=O)[C@@H](N)CCC(=O)O)C(C)C)[C@@H](C)O)[C@@H](C)O)C(=O)N[C@@H](Cc1ccccc1)C(=O)N[C@@H](CS)C(=O)N[C@H](C(=O)N[C@H](C(=O)O)[C@@H](C)O)[C@@H](C)O [FN33 AMP] (H-EGGCGVDTWGCLTPCHCDLFCTT-OH)
MRSA strain 2468 [1]; with CTAB 1% w/v, 1 h
  Antibacterial Activity Retention of FN33 AMP (%) Against MRSA Strain 2468: 93.19 ± 0.52 %
MRSA strain 2468 [1]; with CTAB 1% w/v, 6 h
  Antibacterial Activity Retention of FN33 AMP (%) Against MRSA Strain 2468: 93.17 ± 0.48 %
MRSA strain 2468 [1]; with CTAB 1% w/v, 12 h
  Antibacterial Activity Retention of FN33 AMP (%) Against MRSA Strain 2468: 92.51 ± 0.69 *^,† %
MRSA strain 2468 [1]; with SDS 1% w/v, 1 h
  Antibacterial Activity Retention of FN33 AMP (%) Against MRSA Strain 2468: 117.08 ± 0.78 %
MRSA strain 2468 [1]; with SDS 1% w/v, 6 h
  Antibacterial Activity Retention of FN33 AMP (%) Against MRSA Strain 2468: 117.39 ± 0.96 %
MRSA strain 2468 [1]; with SDS 1% w/v, 12 h
  Antibacterial Activity Retention of FN33 AMP (%) Against MRSA Strain 2468: 115.95 ± 0.57 %
MRSA strain 2468 [1]; with Triton X-100 1% w/v, 1 h
  Antibacterial Activity Retention of FN33 AMP (%) Against MRSA Strain 2468: 81.23 ± 1.04 %
MRSA strain 2468 [1]; with Triton X-100 1% w/v, 6 h
  Antibacterial Activity Retention of FN33 AMP (%) Against MRSA Strain 2468: 81.69 ± 0.38 %
MRSA strain 2468 [1]; with Triton X-100 1% w/v, 12 h
  Antibacterial Activity Retention of FN33 AMP (%) Against MRSA Strain 2468: 81.30 ± 0.72 %
[2]
  IC50 (DPPH radical scavenging): 11.66 ± 2.87 µg/mL (≈ 4.82 µM)
α-chymotrypsin; 1 h
  Antibacterial Activity Retention of FN33 AMP (%) Against MRSA Strain 2468: 0.00 ± 0.00 %
α-chymotrypsin; 6 h
  Antibacterial Activity Retention of FN33 AMP (%) Against MRSA Strain 2468: 0.00 ± 0.00 %
α-chymotrypsin; 12 h
  Antibacterial Activity Retention of FN33 AMP (%) Against MRSA Strain 2468: 0.00 ± 0.00 %
Proteinase K; 1 h
  Antibacterial Activity Retention of FN33 AMP (%) Against MRSA Strain 2468: 0.00 ± 0.00 %
Proteinase K; 6 h
  Antibacterial Activity Retention of FN33 AMP (%) Against MRSA Strain 2468: 0.00 ± 0.00 %
Proteinase K; 12 h
  Antibacterial Activity Retention of FN33 AMP (%) Against MRSA Strain 2468: 0.00 ± 0.00 %
MRSA strain 2468 [3]; 30 °C, 1 h
  Antibacterial Activity Retention of FN33 AMP (%) Against MRSA Strain 2468: 100.00 ± 0.66%
MRSA strain 2468 [3]; 30 °C, 6 h
  Antibacterial Activity Retention of FN33 AMP (%) Against MRSA Strain 2468: 100.00 ± 0.17%
MRSA strain 2468 [3]; 30 °C, 12 h
  Antibacterial Activity Retention of FN33 AMP (%) Against MRSA Strain 2468: 99.79 ± 0.47%
MRSA strain 2468 [3]; 40 °C, 1 h
  Antibacterial Activity Retention of FN33 AMP (%) Against MRSA Strain 2468: 100.08 ± 0.48%
MRSA strain 2468 [3]; 40 °C, 6 h
  Antibacterial Activity Retention of FN33 AMP (%) Against MRSA Strain 2468: 100.02 ± 0.35%
MRSA strain 2468 [3]; 40 °C, 12 h
  Antibacterial Activity Retention of FN33 AMP (%) Against MRSA Strain 2468: 100.23 ± 0.28%
MRSA strain 2468 [3]; 60 °C, 1 h
  Antibacterial Activity Retention of FN33 AMP (%) Against MRSA Strain 2468: 98.58 ± 1.74%
MRSA strain 2468 [3]; 60 °C, 6 h
  Antibacterial Activity Retention of FN33 AMP (%) Against MRSA Strain 2468: 93.53 ± 1.27 *^,† %
MRSA strain 2468 [3]; 60 °C, 12 h
  Antibacterial Activity Retention of FN33 AMP (%) Against MRSA Strain 2468: 86.98 ± 0.79 *^,† %
MRSA strain 2468 [3]; 80 °C, 1 h
  Antibacterial Activity Retention of FN33 AMP (%) Against MRSA Strain 2468: 95.17 ± 0.43 %
MRSA strain 2468 [3]; 80 °C, 6 h
  Antibacterial Activity Retention of FN33 AMP (%) Against MRSA Strain 2468: 90.91 ± 0.26 *^,† %
MRSA strain 2468 [3]; 80 °C, 12 h
  Antibacterial Activity Retention of FN33 AMP (%) Against MRSA Strain 2468: 82.46 ± 0.55 *^,† %
MRSA strain 2468 [3]; 100 °C, 1 h
  Antibacterial Activity Retention of FN33 AMP (%) Against MRSA Strain 2468: 90.83 ± 0.67 %
MRSA strain 2468 [3]; 100 °C, 6 h
  Antibacterial Activity Retention of FN33 AMP (%) Against MRSA Strain 2468: 83.38 ± 0.83 *^,† %
MRSA strain 2468 [3]; 100 °C, 12 h
  Antibacterial Activity Retention of FN33 AMP (%) Against MRSA Strain 2468: 79.97 ± 0.06 *^,† %
MRSA strain 2468 [3]; autoclave 121 °C and 15 psi, 15 min
  Antibacterial Activity Retention of FN33 AMP (%) Against MRSA Strain 2468: 72.82 ± 0.53 %
MRSA strain 2468 [3]; autoclave 121 °C and 15 psi, 30 min
  Antibacterial Activity Retention of FN33 AMP (%) Against MRSA Strain 2468: 65.87 ± 0.82 *^,† %
MRSA strain 2468 [3]; 60 °C, 80 °C and 100 °C, over 12 h
  activity lost due to elevated temperatures: up to 20%
trypsin; 1 h
  Antibacterial Activity Retention of FN33 AMP (%) Against MRSA Strain 2468: 99.60 ± 0.6%
trypsin; 6 h
  Antibacterial Activity Retention of FN33 AMP (%) Against MRSA Strain 2468: 98.82 ± 0.67%
trypsin; 12 h
  Antibacterial Activity Retention of FN33 AMP (%) Against MRSA Strain 2468: 99.04 ± 1.02%
MRSA strain 2468 [4]; pH 1, 1 h
  Antibacterial Activity Retention of FN33 AMP (%) Against MRSA Strain 2468: 74.56 ± 0.69 %
MRSA strain 2468 [4]; pH 1, 6 h
  Antibacterial Activity Retention of FN33 AMP (%) Against MRSA Strain 2468: 76.51 ± 0.39 %
MRSA strain 2468 [4]; pH 1, 12 h
  Antibacterial Activity Retention of FN33 AMP (%) Against MRSA Strain 2468: 72.85 ± 0.22 *^,† %
MRSA strain 2468 [4]; pH 4, 1 h
  Antibacterial Activity Retention of FN33 AMP (%) Against MRSA Strain 2468: 97.42 ± 0.65 %
MRSA strain 2468 [4]; pH 4, 6 h
  Antibacterial Activity Retention of FN33 AMP (%) Against MRSA Strain 2468: 96.19 ± 0.21 %
MRSA strain 2468 [4]; pH 4, 12 h
  Antibacterial Activity Retention of FN33 AMP (%) Against MRSA Strain 2468: 95.30 ± 0.69 *^,† %
MRSA strain 2468 [4]; pH 8, 1 h
  Antibacterial Activity Retention of FN33 AMP (%) Against MRSA Strain 2468: 99.53 ± 0.41%
MRSA strain 2468 [4]; pH 8, 6 h
  Antibacterial Activity Retention of FN33 AMP (%) Against MRSA Strain 2468: 98.03 ± 0.65%
MRSA strain 2468 [4]; pH 8, 12 h
  Antibacterial Activity Retention of FN33 AMP (%) Against MRSA Strain 2468: 98.76 ± 0.81%
MRSA strain 2468 [4]; pH 10, 1 h
  Antibacterial Activity Retention of FN33 AMP (%) Against MRSA Strain 2468: 74.63 ± 0.79 %
MRSA strain 2468 [4]; pH 10, 6 h
  Antibacterial Activity Retention of FN33 AMP (%) Against MRSA Strain 2468: 73.12 ± 1.04 *^,† %
MRSA strain 2468 [4]; pH 10, 12 h
  Antibacterial Activity Retention of FN33 AMP (%) Against MRSA Strain 2468: 69.46 ± 0.77 *^,† %
MRSA strain 2468 [4]; pH 14, 1 h
  Antibacterial Activity Retention of FN33 AMP (%) Against MRSA Strain 2468: 68.58 ± 0.45 %
MRSA strain 2468 [4]; pH 14, 6 h
  Antibacterial Activity Retention of FN33 AMP (%) Against MRSA Strain 2468: 66.80 ± 0.27 *^,† %
MRSA strain 2468 [4]; pH 14, 12 h
  Antibacterial Activity Retention of FN33 AMP (%) Against MRSA Strain 2468: 65.80 ± 0.84 *^,† %

Reference: paper PMC12113356, “Novel Anti-MRSA Peptide from Mangrove-Derived Virgibacillus chiguensis FN33 Supported by Genomics and Molecular Dynamics” (Marine Drugs, 2025)
